Test results: US6737383B1, “Herbicidal oxadiazolidines” (priority 1999, dated 2004)

What was measured:
[1] = test system: bedstraw; assay: Test B pre/postemergence bedstraw; format: in vivo, Galium aparine
Summary of the method: (§1)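 Herbicidal effect was estimated by eye on a ten-point control scale after plants spent twelve to sixteen days in a greenhouse following soil or foliar treatment. Foliar sprays targeted plants at one to four leaves; all doses were formulated in a non-phytotoxic solvent with surfactant.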

[2] = test system: blackgrass; assay: Test B pre/postemergence blackgrass; format: in vivo, Alopecurus myosuroides
Summary of the method: as §1

[3] = test system: surinam grass; assay: Test B pre/postemergence surinam grass; format: in vivo, Brachiaria decumbens
Summary of the method: as §1

[4] = test system: cocklebur; assay: Test B pre/postemergence cocklebur; format: in vivo, Xanthium strumarium
Summary of the method: as §1

[5] = test system: corn; assay: Test B pre/postemergence corn; format: in vivo, Zea mays
Summary of the method: as §1

[6] = test system: crabgrass; assay: Test B pre/postemergence crabgrass; format: in vivo, Digitaria sanguinalis
Summary of the method: as §1

[7] = test system: giant foxtail; assay: Test B pre/postemergence giant foxtail; format: in vivo, Setaria faberii
Summary of the method: as §1

[8] = test system: morningglory; assay: Test B pre/postemergence morningglory; format: in vivo, Ipomoea hederacea
Summary of the method: as §1

[9] = test system: pigweed; assay: Test B pre/postemergence pigweed; format: in vivo, Amaranthus retroflexus
Summary of the method: as §1

[10] = test system: rape; assay: Test B pre/postemergence rape; format: in vivo, Brassica napus
Summary of the method: as §1

[11] = test system: soybean; assay: Test B pre/postemergence soybean; format: in vivo, Glycine max
Summary of the method: as §1

[12] = test system: sugar beet; assay: Test B pre/postemergence sugar beet; format: in vivo, Beta vulgaris
Summary of the method: as §1

[13] = test system: velvetleaf; assay: Test B pre/postemergence velvetleaf; format: in vivo, Abutilon theophrasti
Summary of the method: as §1

[14] = test system: wheat; assay: Test B pre/postemergence wheat; format: in vivo, Triticum aestivum
Summary of the method: as §1

[15] = test system: wild oat; assay: Test B pre/postemergence wild oat; format: in vivo, Avena fatua
Summary of the method: as §1

[16] = test system: purple nutsedge; assay: Test B pre/postemergence purple nutsedge; format: in vivo, Cyperus rotundus
Summary of the method: as §1

[17] = Preemergence, Rate 62 g/ha, scale of 0 to 10 where 0 is no effect and 10 is complete control
[18] = Preemergence, Rate 125 g/ha, 0 is no effect, 10 is complete control
[19] = Preemergence, Rate 250 g/ha, scale 0 to 10, 0 is no effect, 10 is complete control
[20] = Preemergence, Rate 500 g/ha, scale 0 to 10 (0 no effect, 10 complete control)
[21] = Rate 62 g/ha, Postemergence, scale of 0 to 10 where 0 is no effect and 10 is complete control
[22] = Rate 125 g/ha, Postemergence, scale 0 to 10
[23] = Rate 500 g/ha, Postemergence, scale 0 to 10

CC(C)N(C(=O)n1oc(=O)n([C@H](C)c2ccccc2)c1=O)c1ccc(F)cc1 [Compound 179]
1: Cocklebur plant response rating [4, 23] | Soybean plant response rating [11, 21] | Soybean plant response rating [11, 22] | Plant response rating (0 to 10; 0 is no effect, 10 is complete control), Soybean ([11]; Rate 250 g/ha, Postemergence) | Soybean plant response rating [11, 23]
8: B. signalgrass plant response rating (0 to 10 scale) [3, 18] | Redroot pigweed plant response rating [9, 23]
10: Bedstraw plant response rating [1, 23] | Giant foxtail plant response rating [7, 19] | Giant foxtail plant response rating [7, 20] | Redroot pigweed plant response rating [9, 20] | Nutsedge plant response rating [16, 20]
4: Plant response rating (0 to 10; 0 is no effect, 10 is complete control), Blackgrass ([2]; Rate 250 g/ha, Postemergence) | Giant foxtail plant response rating [7, 23] | Morningglory plant response rating [8, 21] | Plant response rating (0 to 10; 0 is no effect, 10 is complete control), Redroot pigweed ([9]; Rate 250 g/ha, Postemergence) | Rape plant response rating [10, 20]
2: Blackgrass plant response rating [2, 19] | Blackgrass plant response rating [2, 20] | Blackgrass plant response rating [2, 22] | Plant response rating (0 to 10; 0 is no effect, 10 is complete control), Crabgrass ([6]; Rate 250 g/ha, Postemergence) | Rape plant response rating [10, 19] | Rape plant response rating [10, 23] | Plant response rating (0 to 10; 0 is no effect, 10 is complete control), Sugarbeets ([12]; Rate 250 g/ha, Postemergence) | Wheat plant response rating [14, 20] | Wild oats plant response rating [15, 23]
3: Velvetleaf plant response rating [13, 23] | Wild oats plant response rating [15, 20]
5: Bedstraw plant response rating [1, 22] | Plant response rating (0 to 10; 0 is no effect, 10 is complete control), Bedstraw ([1]; Rate 250 g/ha, Postemergence) | Morningglory plant response rating [8, 22] | Plant response rating (0 to 10; 0 is no effect, 10 is complete control), Morningglory ([8]; Rate 250 g/ha, Postemergence) | Morningglory plant response rating [8, 23] | Velvetleaf plant response rating [13, 20]
0: Bedstraw plant response rating [1, 17] | Bedstraw plant response rating (0 to 10 scale) [1, 18] | Bedstraw plant response rating [1, 19] | Bedstraw plant response rating [1, 20] | Bedstraw plant response rating [1, 21] | Blackgrass plant response rating [2, 17] | Blackgrass plant response rating (0 to 10 scale) [2, 18] | Blackgrass plant response rating [2, 21] | B. signalgrass plant response rating [3, 21] | B. signalgrass plant response rating ([3]; Rate 125 g/ha, Postemergence, scale 0 (no effect) to 10 (complete control)) | Plant response rating, B. signalgrass ([3]; Rate 250 g/ha, Postemergence, scale 0 to 10, 0 is no effect, 10 is complete control) | B. signalgrass plant response rating ([3]; Rate 500 g/ha, Postemergence, scale 0 to 10, 0 no effect, 10 complete control) | Cocklebur plant response rating [4, 17] | Cocklebur plant response rating (0 to 10 scale) [4, 18] | Cocklebur plant response rating [4, 19] | Cocklebur plant response rating [4, 20] | Cocklebur plant response rating [4, 21] | Cocklebur plant response rating [4, 22] | Plant response rating (0 to 10; 0 is no effect, 10 is complete control), Cocklebur ([4]; Rate 250 g/ha, Postemergence) | Corn plant response rating [5, 17] | Corn plant response rating (0 to 10 scale) [5, 18] | Corn plant response rating [5, 19] | Corn plant response rating [5, 20] | Corn plant response rating [5, 21] | Corn plant response rating [5, 22] | Plant response rating (0 to 10; 0 is no effect, 10 is complete control), Corn ([5]; Rate 250 g/ha, Postemergence) | Corn plant response rating [5, 23] | Crabgrass plant response rating [6, 21] | Crabgrass plant response rating [6, 22] | Giant foxtail plant response rating [7, 21] | Giant foxtail plant response rating [7, 22] | Plant response rating (0 to 10; 0 is no effect, 10 is complete control), Giant foxtail ([7]; Rate 250 g/ha, Postemergence) | Morningglory plant response rating [8, 17] | Morningglory plant response rating (0 to 10 scale) [8, 18] | Morningglory plant response rating [8, 19] | Morningglory plant response rating [8, 20] | Redroot pigweed plant response rating [9, 21] | Redroot pigweed plant response rating [9, 22] | Rape plant response rating [10, 17] | Rape plant response rating (0 to 10 scale) [10, 18] | Rape plant response rating [10, 21] | Rape plant response rating [10, 22] | Plant response rating (0 to 10; 0 is no effect, 10 is complete control), Rape ([10]; Rate 250 g/ha, Postemergence) | Soybean plant response rating [11, 17] | Soybean plant response rating (0 to 10 scale) [11, 18] | Soybean plant response rating [11, 19] | Soybean plant response rating [11, 20] | Sugarbeets plant response rating [12, 17] | Sugarbeets plant response rating (0 to 10 scale) [12, 18] | Sugarbeets plant response rating [12, 19] | Sugarbeets plant response rating [12, 20] | Sugarbeets plant response rating [12, 21] | Sugarbeets plant response rating [12, 22] | Velvetleaf plant response rating [13, 17] | Velvetleaf plant response rating (0 to 10 scale) [13, 18] | Velvetleaf plant response rating [13, 19] | Velvetleaf plant response rating [13, 22] | Plant response rating (0 to 10; 0 is no effect, 10 is complete control), Velvetleaf ([13]; Rate 250 g/ha, Postemergence) | Wheat plant response rating [14, 17] | Wheat plant response rating (0 to 10 scale) [14, 18] | Wheat plant response rating [14, 19] | Wheat plant response rating [14, 22] | Plant response rating (0 to 10; 0 is no effect, 10 is complete control), Wheat ([14]; Rate 250 g/ha, Postemergence) | Wheat plant response rating [14, 23] | Wild oats plant response rating [15, 17] | Wild oats plant response rating (0 to 10 scale) [15, 18] | Wild oats plant response rating [15, 19] | Wild oats plant response rating [15, 22] | Plant response rating (0 to 10; 0 is no effect, 10 is complete control), Wild oats ([15]; Rate 250 g/ha, Postemergence) | Nutsedge plant response rating [16, 17] | Nutsedge plant response rating (0 to 10 scale) [16, 18] | Nutsedge plant response rating [16, 19] | Nutsedge plant response rating [16, 21] | Nutsedge plant response rating [16, 22] | Plant response rating (0 to 10; 0 is no effect, 10 is complete control), Nutsedge ([16]; Rate 250 g/ha, Postemergence) | Nutsedge plant response rating [16, 23]
6: Blackgrass plant response rating [2, 23] | Crabgrass plant response rating [6, 17] | Giant foxtail plant response rating [7, 17] | Sugarbeets plant response rating [12, 23]
9: B. signalgrass plant response rating [3, 20] | Crabgrass plant response rating [6, 19] | Crabgrass plant response rating [6, 20] | Crabgrass plant response rating [6, 23] | Giant foxtail plant response rating (0 to 10 scale) [7, 18]
7: B. signalgrass plant response rating [3, 17] | Crabgrass plant response rating (0 to 10 scale) [6, 18] | Redroot pigweed plant response rating [9, 17] | Redroot pigweed plant response rating (0 to 10 scale) [9, 18] | Redroot pigweed plant response rating [9, 19]
